Test results reported in PubChem BioAssay (NCI).
Values joined by “and” are separate entries in the source; they are usually repeats but may differ in a detail not shown here. Identical values can stand only once.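 Method: 48-hour compound exposure of cells in 96-well plates, five concentrations, linear interpolation of endpoints. GI50: concentration for 50% inhibition of growth. The concentration for full growth arrest is given as TGI.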 *1 amine or outer side, *2 acyl side, *3 side chain or, on linkers, in order; H or OH if unused. Where a SMILES comes first, the peptide text is derived from it. [ ]: non-standard residue; d: D form. The star is where a group is joined. ξ: configuration not given here. X11 = CCC(=O)CC(O)CC(C)CC(N[*:1])C(=O)[*:2]; ξLeu(3ξ-OH) = CC(C)C(O)C(N)C(=O)O; ξPro(4ξ-Me) = CC1CNC(C(=O)O)C1; X10 = CCC(C)/C=C/C(=O)*; Aib = CC(C)(N)C(=O)O; X12 = CC(CN(C)C)N*; βAla = NCCC(=O)O

Assays:
Assay in all cases: growth of human tumour cells (NCI), 48 h
786-0 renal = tested on: 786-0 renal
A549 NSCLC = tested on: A549 NSCLC
ACHN renal = tested on: ACHN renal
BT-549 breast = tested on: BT-549 breast
CAKI-1 renal = tested on: CAKI-1 renal
COLO 205 colon = tested on: COLO 205 colon
EKVX NSCLC = tested on: EKVX NSCLC
HCC-2998 colon = tested on: HCC-2998 colon
HCT-116 colon = tested on: HCT-116 colon
HCT-15 colon = tested on: HCT-15 colon
HL-60(TB) leukemia = tested on: HL-60(TB) leukemia
HOP-62 NSCLC = tested on: HOP-62 NSCLC
HOP-92 NSCLC = tested on: HOP-92 NSCLC
HS 578T breast = tested on: HS 578T breast
HT29 colon = tested on: HT29 colon
IGROV1 ovarian = tested on: IGROV1 ovarian
K-562 leukemia = tested on: K-562 leukemia
KM12 colon = tested on: KM12 colon
LOX IMVI melanoma = tested on: LOX IMVI melanoma
M14 melanoma = tested on: M14 melanoma
MCF7 breast = tested on: MCF7 breast
MDA-MB-231 breast = tested on: MDA-MB-231 breast
MDA-MB-435 = tested on: MDA-MB-435
MOLT-4 leukemia = tested on: MOLT-4 leukemia
NCI-H226 lung = tested on: NCI-H226 lung
NCI-H23 lung = tested on: NCI-H23 lung
NCI-H460 lung = tested on: NCI-H460 lung
NCI-H522 lung = tested on: NCI-H522 lung
NCI/ADR-RES ovarian = tested on: NCI/ADR-RES ovarian
OVCAR-3 ovarian = tested on: OVCAR-3 ovarian
OVCAR-5 ovarian = tested on: OVCAR-5 ovarian
OVCAR-8 ovarian = tested on: OVCAR-8 ovarian
PC-3 prostate = tested on: PC-3 prostate
RXF 393 renal = tested on: RXF 393 renal
SF-268 CNS = tested on: SF-268 CNS
SF-295 CNS = tested on: SF-295 CNS
SK-MEL-2 melanoma = tested on: SK-MEL-2 melanoma
SK-MEL-28 melanoma = tested on: SK-MEL-28 melanoma
SK-MEL-5 melanoma = tested on: SK-MEL-5 melanoma
SN12C renal = tested on: SN12C renal
SNB-19 CNS = tested on: SNB-19 CNS
SW-620 colon = tested on: SW-620 colon
T-47D breast = tested on: T-47D breast
TK-10 renal = tested on: TK-10 renal
U251 CNS = tested on: U251 CNS
UACC-257 melanoma = tested on: UACC-257 melanoma
UACC-62 melanoma = tested on: UACC-62 melanoma
UO-31 renal = tested on: UO-31 renal
A498 renal = tested on: A498 renal
CCRF-CEM leukemia = tested on: CCRF-CEM leukemia
OVCAR-4 ovarian = tested on: OVCAR-4 ovarian
RPMI-8226 leukemia = tested on: RPMI-8226 leukemia
SF-539 CNS = tested on: SF-539 CNS
SK-OV-3 ovarian = tested on: SK-OV-3 ovarian
SNB-75 CNS = tested on: SNB-75 CNS
SR leukemia = tested on: SR leukemia
DU-145 prostate = tested on: DU-145 prostate
MALME-3M melanoma = tested on: MALME-3M melanoma

## O=C(O)c1ccc(NCn2nc(-c3ccccc3O)oc2=S)cc1O
786-0 renal
  GI50: 95.2 µM
  TGI: > 100 µM
A549 NSCLC
  GI50: > 100 µM
  TGI: > 100 µM
ACHN renal
  GI50: 31.6 µM
  TGI: 99.1 µM
BT-549 breast
  GI50: > 100 µM
  TGI: > 100 µM
CAKI-1 renal
  GI50: > 100 µM
  TGI: > 100 µM
COLO 205 colon
  GI50: 42.6 µM
  TGI: > 100 µM
EKVX NSCLC
  GI50: > 100 µM
  TGI: > 100 µM
HCC-2998 colon
  GI50: > 100 µM
  TGI: > 100 µM
HCT-116 colon
  GI50: 44.9 µM
  TGI: > 100 µM
HCT-15 colon
  GI50: 32 µM
  TGI: 92.6 µM
HL-60(TB) leukemia
  GI50: > 100 µM
  TGI: > 100 µM
HOP-62 NSCLC
  GI50: > 100 µM
  TGI: > 100 µM
HOP-92 NSCLC
  GI50: > 100 µM
  TGI: > 100 µM
HS 578T breast
  GI50: > 100 µM
  TGI: > 100 µM
HT29 colon
  GI50: > 100 µM
  TGI: > 100 µM
IGROV1 ovarian
  GI50: > 100 µM
  TGI: > 100 µM
K-562 leukemia
  GI50: > 100 µM
  TGI: > 100 µM
KM12 colon
  GI50: > 100 µM
  TGI: > 100 µM
LOX IMVI melanoma
  GI50: 25.4 µM
  TGI: > 100 µM
M14 melanoma
  GI50: > 100 µM
  TGI: > 100 µM
MCF7 breast
  GI50: > 100 µM
  TGI: > 100 µM
MDA-MB-231 breast
  GI50: 38.9 µM
  TGI: > 100 µM
MDA-MB-435
  GI50: > 100 µM
  TGI: > 100 µM
MOLT-4 leukemia
  GI50: 26.1 µM
  TGI: 82.1 µM
NCI-H226 lung
  GI50: 21 µM
  TGI: > 100 µM
NCI-H23 lung
  GI50: > 100 µM
  TGI: > 100 µM
NCI-H460 lung
  GI50: 95.6 µM
  TGI: > 100 µM
NCI-H522 lung
  GI50: > 100 µM
  TGI: > 100000 nM
NCI/ADR-RES ovarian
  GI50: > 100 µM
  TGI: > 100 µM
OVCAR-3 ovarian
  GI50: > 100 µM
  TGI: > 100 µM
OVCAR-5 ovarian
  GI50: > 100 µM
  TGI: > 100 µM
OVCAR-8 ovarian
  GI50: > 100 µM
  TGI: > 100 µM
PC-3 prostate
  GI50: 86.6 µM
  TGI: > 100 µM
RXF 393 renal
  GI50: > 100 µM
  TGI: > 100 µM
SF-268 CNS
  GI50: > 100 µM
  TGI: > 100 µM
SF-295 CNS
  GI50: > 100 µM
  TGI: > 100 µM
SK-MEL-2 melanoma
  GI50: 46.8 µM
  TGI: > 100 µM
SK-MEL-28 melanoma
  GI50: > 100 µM
  TGI: > 100 µM
SK-MEL-5 melanoma
  GI50: > 100 µM
  TGI: > 100 µM
SN12C renal
  GI50: 8.85 µM
  TGI: 60.1 µM
SNB-19 CNS
  GI50: > 100 µM
  TGI: > 100 µM
SW-620 colon
  GI50: 41.9 µM
  TGI: > 100 µM
T-47D breast
  GI50: > 100 µM
  TGI: > 100 µM
TK-10 renal
  GI50: > 100 µM
  TGI: > 100 µM
U251 CNS
  GI50: 78.1 µM
  TGI: > 100 µM
UACC-257 melanoma
  GI50: > 100 µM
  TGI: > 100 µM
UACC-62 melanoma
  GI50: 39.8 µM
  TGI: > 100 µM
UO-31 renal
  GI50: > 100 µM
  TGI: > 100 µM

## Cc1c(/C=N/NC(=S)Nc2ccc([N+](=O)[O-])cc2)c(=O)n(-c2ccccc2)n1C
786-0 renal
  TGI: 27.3 µM
A498 renal
  TGI: 24 µM
ACHN renal
  TGI: 23.6 µM
BT-549 breast
  TGI: 36.5 µM
CAKI-1 renal
  TGI: 18.9 µM
CCRF-CEM leukemia
  TGI: > 100 µM
COLO 205 colon
  TGI: > 100 µM
EKVX NSCLC
  TGI: 24.5 µM
HCC-2998 colon
  TGI: > 100 µM
HCT-116 colon
  TGI: 52.3 µM
HCT-15 colon
  TGI: 49.4 µM
HL-60(TB) leukemia
  TGI: > 100 µM
HOP-62 NSCLC
  TGI: 23.8 µM
HOP-92 NSCLC
  TGI: 25.5 µM
HS 578T breast
  TGI: 42.2 µM
HT29 colon
  TGI: 25.5 µM
IGROV1 ovarian
  TGI: 25.9 µM
K-562 leukemia
  TGI: > 100 µM
KM12 colon
  TGI: 51.1 µM
LOX IMVI melanoma
  TGI: 33.3 µM
M14 melanoma
  TGI: 28.6 µM
MCF7 breast
  TGI: 50 µM
MDA-MB-231 breast
  TGI: 49.2 µM
MDA-MB-435
  TGI: > 100 µM
MOLT-4 leukemia
  TGI: > 100 µM
NCI-H226 lung
  TGI: 29.7 µM
NCI-H23 lung
  TGI: 32.6 µM
NCI/ADR-RES ovarian
  TGI: 32.1 µM
OVCAR-4 ovarian
  TGI: 34.7 µM
OVCAR-8 ovarian
  TGI: 31.6 µM
PC-3 prostate
  TGI: 76.8 µM
RPMI-8226 leukemia
  TGI: > 100 µM
RXF 393 renal
  TGI: 24.8 µM
SF-268 CNS
  TGI: 26.7 µM
SF-295 CNS
  TGI: 22.7 µM
SF-539 CNS
  TGI: 30 µM
SK-MEL-2 melanoma
  TGI: 30.5 µM
SK-MEL-28 melanoma
  TGI: > 100 µM
SK-MEL-5 melanoma
  TGI: > 100 µM
SK-OV-3 ovarian
  TGI: 26.3 µM
SNB-19 CNS
  TGI: 31.8 µM
SNB-75 CNS
  TGI: 26.3 µM
SR leukemia
  TGI: > 100 µM
SW-620 colon
  TGI: > 100 µM
TK-10 renal
  TGI: 26.3 µM
U251 CNS
  TGI: 30.9 µM
UACC-257 melanoma
  TGI: > 100 µM
UACC-62 melanoma
  TGI: 33.7 µM
UO-31 renal
  TGI: 49.2 µM

## CCC(=O)CC(O)CC(C)CC(NC(=O)C1CC(C)CN1C(=O)/C=C/C(C)CC)C(=O)NC(C(=O)NC(C)(C)C(=O)NC(CC(C)C)C(=O)NC(CC(C)C)C(=O)NC(C)(C)C(=O)NC(C)(C)C(=O)NCCC(=O)NC(C)CN(C)C)C(O)C(C)C (stereo not drawn) (X10-[ξPro(4ξ-Me)][X11][ξLeu(3ξ-OH)][Aib]LL[Aib][Aib][βAla]-X12; configuration not given here)
BT-549 breast
  TGI: 11.3 µM
HOP-92 NSCLC
  TGI: 1.09 µM
NCI-H226 lung
  TGI: 3.62 µM
NCI-H23 lung
  TGI: 7.7 µM
UACC-257 melanoma
  TGI: 17 µM

## Nc1cc2c(c3ccccc13)C(CCl)CN2C(=O)c1cc2cc(NC(=O)c3cc4ccccc4o3)ccc2[nH]1 (stereo not drawn)
786-0 renal
  GI50: > 0.11 µM
  TGI: > 1100 µM
ACHN renal
  GI50: 0.000208 µM
BT-549 breast
  TGI: 0.00708 µM
CAKI-1 renal
  GI50: > 0.11 µM
  TGI: < 0.11 µM
DU-145 prostate
  TGI: 142 µM
EKVX NSCLC
  TGI: 0.43 µM
HCC-2998 colon
  TGI: 0.675 µM
HCT-116 colon
  GI50: > 0.11 µM
  TGI: > 1100 µM
HCT-15 colon
  GI50: > 0.11 µM
  TGI: 1.15 µM
HL-60(TB) leukemia
  GI50: > 0.11 µM
  TGI: < 0.11 µM
HOP-62 NSCLC
  TGI: < 0.11 µM
KM12 colon
  GI50: > 0.11 µM
  TGI: 0.0235 µM and < 0.11 µM
LOX IMVI melanoma
  GI50: > 0.11 µM
  TGI: 256 µM
MALME-3M melanoma
  GI50: > 110 nM
  TGI: 7.71 nM and < 110 nM
MCF7 breast
  GI50: > 0.11 µM
  TGI: < 0.11 µM
MDA-MB-231 breast
  GI50: > 0.11 µM
  TGI: > 1100 µM
MDA-MB-435
  GI50: > 0.11 µM
  TGI: < 0.11 µM
NCI-H23 lung
  TGI: 0.027 µM and 0.125 µM
NCI-H460 lung
  GI50: 0.000351 µM
NCI-H522 lung
  GI50: > 0.11 µM
  TGI: 3.32 nM and < 110 nM
NCI/ADR-RES ovarian
  GI50: > 0.11 µM
  TGI: 0.0078 µM and < 0.11 µM
OVCAR-5 ovarian
  GI50: > 0.11 µM
  TGI: 138 µM
OVCAR-8 ovarian
  GI50: > 0.11 µM
  TGI: 0.00407 µM and < 0.11 µM
SK-MEL-2 melanoma
  GI50: > 0.11 µM
  TGI: 0.0109 µM and < 0.11 µM
SK-OV-3 ovarian
  TGI: 5.5 µM
SN12C renal
  GI50: > 0.11 µM
  TGI: 1.67 µM
SNB-19 CNS
  TGI: 0.408 µM
SR leukemia
  GI50: > 110 nM
  TGI: 200 µM
T-47D breast
  GI50: > 0.11 µM
UACC-62 melanoma
  TGI: 0.0206 µM
